Experimental data taken from patent US5565566A (Discovery Therapeutics, Inc., priority 1995, dated 1996).
Where two headings read alike, the source gives them in different places.

Tests used:
[1] = molecular target: T1, A1 adenosine receptors (Cavia porcellus, UniProt P47745); test: antagonism of adenosine agonists: reduction in force of contraction of guinea pig atrium (A1); conditions: for competitive antagonism at adenosine receptors in the atria / basal force of contraction in the atria: guinea pig atria
T1 construct: The left atria from male guinea pigs were isolated; from tissue; host or cells: guinea pig left atrium
T1 sequence (P47745 1-326): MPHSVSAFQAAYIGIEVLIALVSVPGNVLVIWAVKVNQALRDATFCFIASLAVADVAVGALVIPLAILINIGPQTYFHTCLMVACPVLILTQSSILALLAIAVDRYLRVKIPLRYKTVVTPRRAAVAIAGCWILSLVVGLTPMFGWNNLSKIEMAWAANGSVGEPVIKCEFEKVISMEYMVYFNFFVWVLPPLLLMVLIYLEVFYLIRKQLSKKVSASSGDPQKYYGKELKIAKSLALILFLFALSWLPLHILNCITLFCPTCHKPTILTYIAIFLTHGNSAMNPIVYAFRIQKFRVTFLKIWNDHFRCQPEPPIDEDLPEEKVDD
Method: The left atria from male guinea pigs were isolated, suspended between two punctate electrodes, and placed in a 20 ml organ bath that contained Krebs-[…] solution that was continuously gassed with 95% O2 +5% CO2 and maintained at 31° C. The resting tension was one gram. The atria were stimulated electrically at 1 Hz, 1 msec duration pulses at supramaximal voltage. The force of contraction was recorded isometrically. The ability of the compounds to antagonize the effects of agonists was analyzed using modified Schild plots.

[2] = tested on: A2 adenosine receptors; test: antagonism of adenosine agonists: decrease in contractile tone of guinea pig taenia caecum (A2); conditions: for selectivity for A1 adenosine receptors (functional tissues): atrium (A1) vs taenia caecum (A2); for antagonism of the effects of adenosine agonists in relaxing the taenia caecum: modified Schild plots; for sensitization of the tissue (larger agonist response): taenia caecum, high concentrations of the compound
Method: Taenia from the guinea pig caecum were cut into lengths of 1.5-2 cm. The tissues were suspended in a 20 ml organ bath containing de Jalon's solution that was gassed with 95% O2 +5% CO2 and maintained at 31° C. […] The contractile response was measured isotonically. […] The ability of the compounds to antagonize the effects of agonists was analyzed using modified Schild plots.

[3] = molecular target: T2, A1 receptors (Rattus norvegicus, UniProt P25099); test: in vivo test on heart rate / ECG of anesthetized rats
T2 sequence (P25099 1-326): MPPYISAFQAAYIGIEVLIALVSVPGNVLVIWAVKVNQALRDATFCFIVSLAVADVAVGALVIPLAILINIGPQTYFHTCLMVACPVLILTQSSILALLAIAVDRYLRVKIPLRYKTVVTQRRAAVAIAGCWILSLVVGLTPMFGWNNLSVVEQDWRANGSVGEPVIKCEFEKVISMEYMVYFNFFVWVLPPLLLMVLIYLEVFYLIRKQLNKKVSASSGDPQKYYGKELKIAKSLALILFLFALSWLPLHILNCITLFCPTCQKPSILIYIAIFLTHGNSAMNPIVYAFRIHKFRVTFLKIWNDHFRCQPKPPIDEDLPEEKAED
Method: (§1) Rats were anesthetized with urethan and blood pressure was monitored via a carotid cannula. Drug injections were made intravenously through a jugular cannula. Blood pressure, EGC, and heart rate were recorded on a Grass polygraph.

[4] = tested on: A2 receptors; test: in vivo test on blood pressure of anesthetized rats; conditions: prior administration, anesthetized rat
Method: as §1

[5] = molecular target: T3, rat cortical A1 receptors (Rattus norvegicus, UniProt P25099); test: displacement of [3H]-CHA from rat cortical A1 receptors; format: binding; conditions: [3H]-CHA; rat cortical A1 receptors; read-out: Rat Cortical Binding Constant Ki
T3 construct: rat cortical membranes were the receptor source; from tissue; host or cells: rat cerebral cortex (male Sprague Dawley) membranes
T3 sequence (P25099 1-326): T2 sequence (P25099 1-326)
Method: (§2) Varying concentrations of test compounds were incubated with the appropriate radioligand and membrane source for 1 hr at room temperature.
(§3) Assays were terminated by filtration over Whatman GF/B filters that had been pre-soaked with 0.1% polyethyleneimine using a 24 port Brandell cell havester. The filters were washed three times with 3 ml of ice cold buffer and transfered to plastic scintillation vials to which 4 ml of Beckman Ready protein scintillation cocktail was added. The tubes were shaken and counted in a Beckman 3801 scintillation counter that converted cpm to dpm.
(§4) Data were analyzed by utilizing the Ligand, commercial computer program (Munson and Rodbard, 1980).
(§5) Male Sprague Dawley rats were killed by decapitation and the brains removed. The cerebral cortices were homogenized in 50 mm Tris; 2mm MgCl2 (pH 7.4), and centrifuged at 40,000×g for 10 minutes. […] The homogenate was centrifuged, washed once, resuspended to a protein concentration of 5-10 mg/ml and frozen at -70° C. until use.

[6] = molecular target: T4, A2 receptors (Bos taurus, UniProt E1BKU0); test: [3H]-NECA binding, bovine caudate membranes (A2); conditions: Table 4, with 50 nM cyclopentyl-adenosine
T4 construct: bovine caudate was the source of membranes; from tissue; host or cells: bovine caudate nuclei (membranes)
Method: Further tests to discover the affinities of test compounds at A2 receptors were conducted.
To provide bovine caudate nuclei, bovine brains were obtained fresh from a local slaughterhouse. The caudate nuclei were dissected out and homogenized in Buffer A (50 mm Tris; 1 mm Na2-EDTA; 5 mm KCl; 1 mm MgCl2; 2 mm CaCl2; pH 7.4) using a Brinkman Polytron. The homogenate was centrifuged at 40,000×g for 20 minutes and washed once. The pellet was resuspended in Buffer A, incubated at 37° C. for 15 minutes, then centrifuged. The pellet was washed once more, resuspended to a protein concentration of 5-10 mg/ml in Buffer A and frozen at -70° C. until use.
as §2, §3, §4

[7] = molecular target: T2, A1 receptors; test: [3H]-CHA binding, rat cortical membranes (A1), selectivity experiment of Table 4; set-up: Rat Brain Membranes; from tissue; host or cells: rat brain (membranes)
Method: as §2, §3, §4, §5

[8] = tested on: adenosine receptor; conditions: cited from earlier work
[9] = molecular target: T5, A2 receptors (Rattus norvegicus, UniProt P30543); test: antagonism of NECA-stimulated adenylate cyclase in rat PC12 membranes (B); format: biochemical
T5 construct: Rat PC12 Membranes; endogenous in cells; host or cells: PC12

[10] = tested on: adenosine-induced cyclic Amp accumulation in a human fibroblast cell line; conditions: low concentrations; cited from earlier work
[11] = molecular target: T2, A1 receptors; test: prevention of R-PIA-induced inhibition of adenylate cyclase in rat fat cell membranes (C); format: biochemical; set-up: from tissue
Method: (§6) For activity at A1 receptors, compounds were tested as inhibitors of the binding of N^6 -[…]-[3H]-Phenylisopropyladenosine in rat brain membranes and for their ability to prevent R-PIA-induced inhibition of adenylate cyclase in rat fat cell membranes.
(C) Rat Fat Cell Membranes

[12] = molecular target: T2, A1 receptors; test: inhibition of binding of [3H]-phenylisopropyladenosine in rat brain membranes (D); set-up: Rat Brain Membranes; from tissue; host or cells: rat brain (membranes)
Method: as §6
(D) Rat Brain Membranes

[13] = tested on: A2 receptors; conditions: vs N^6 -substituted adenosine analogs; cited from earlier work
[14] = molecular target: T6, A2 receptors (Homo sapiens, UniProt P29274); test: antagonism of NECA-stimulated adenylate cyclase in human platelet membranes (A); format: biochemical; conditions: for Kb: (A) Human Platelet Membranes, A2 Effects
T6 construct: Human Platelet Membranes; from tissue; host or cells: human platelets (membranes)

[15] = (B) Rat PC12 Membranes, A2 Effects
[16] = guinea pig atrium, modified Schild plots
[17] = (C) Rat Fat Cell Membranes, A1 Effects, read-out: KB vs PIA INHIBITION (Adenylate Cyclase)

T5 sequence (P30543 whole entry): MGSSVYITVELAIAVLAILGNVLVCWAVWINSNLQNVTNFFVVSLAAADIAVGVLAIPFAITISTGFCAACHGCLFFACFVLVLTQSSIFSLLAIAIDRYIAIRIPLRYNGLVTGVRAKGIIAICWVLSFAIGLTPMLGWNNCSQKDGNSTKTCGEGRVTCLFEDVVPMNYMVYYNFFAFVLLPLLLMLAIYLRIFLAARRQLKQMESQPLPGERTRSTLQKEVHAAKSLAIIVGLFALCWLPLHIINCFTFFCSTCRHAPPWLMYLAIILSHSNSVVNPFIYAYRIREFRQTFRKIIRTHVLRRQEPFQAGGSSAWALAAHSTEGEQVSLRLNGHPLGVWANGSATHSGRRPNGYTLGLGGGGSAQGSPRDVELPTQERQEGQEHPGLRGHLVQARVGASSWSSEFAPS
T6 sequence (P29274 whole entry): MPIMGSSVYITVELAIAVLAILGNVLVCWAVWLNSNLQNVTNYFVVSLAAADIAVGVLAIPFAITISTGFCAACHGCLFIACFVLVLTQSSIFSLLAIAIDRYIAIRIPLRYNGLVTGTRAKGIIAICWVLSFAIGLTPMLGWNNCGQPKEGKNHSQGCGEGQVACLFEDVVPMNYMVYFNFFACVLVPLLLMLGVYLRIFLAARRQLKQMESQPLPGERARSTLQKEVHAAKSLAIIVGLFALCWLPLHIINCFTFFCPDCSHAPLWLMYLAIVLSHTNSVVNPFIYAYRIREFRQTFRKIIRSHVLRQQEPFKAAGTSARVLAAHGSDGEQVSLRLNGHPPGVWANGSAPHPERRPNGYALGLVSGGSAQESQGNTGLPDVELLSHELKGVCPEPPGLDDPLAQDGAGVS
T4 sequence (E1BKU0 1-401): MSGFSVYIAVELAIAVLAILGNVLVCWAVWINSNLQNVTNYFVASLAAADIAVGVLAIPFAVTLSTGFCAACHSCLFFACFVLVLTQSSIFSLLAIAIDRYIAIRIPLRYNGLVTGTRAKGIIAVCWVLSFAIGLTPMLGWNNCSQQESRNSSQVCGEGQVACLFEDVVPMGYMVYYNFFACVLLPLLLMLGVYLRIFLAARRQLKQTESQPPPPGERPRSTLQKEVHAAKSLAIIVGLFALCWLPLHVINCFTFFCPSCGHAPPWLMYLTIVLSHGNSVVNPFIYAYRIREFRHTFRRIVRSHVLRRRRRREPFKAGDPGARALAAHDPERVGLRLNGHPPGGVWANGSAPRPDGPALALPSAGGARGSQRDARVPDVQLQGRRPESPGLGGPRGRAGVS

For `Cn1cnc2c(N[C@H]3C[C@H]4CC[C@@H]3C4)ncnc21` (relative stereo) [compound 0861, N^6-(endo-2-Norbornyl)-9-Methyladenine], the “potency ranking as antagonist” value ([1]; among the Table 2 examples) was “the most potent antagonist”, the “competitive antagonism at adenosine receptors in the atria” value (shortened to “competitive antagonism”) [1] was “competitive antagonists at adenosine receptors in the atria” and the “selectivity for A1 adenosine receptors (functional tissues)” value (shortened to “selectivity for A1 adenosine receptors”) [2] was “selective for A1 adenosine receptors”. The “antagonism of the effects of adenosine agonists in relaxing the taenia caecum” value (from here on “antagonism … in relaxing the taenia caecum”) [2] was “did not competitively antagonize the effects of adenosine agonists in relaxing the taenia caecum”, the “sensitization of the tissue (larger agonist response)” value (“sensitization of the tissue” for short) [2] was “some sensitization of the tissue” and the cardio-selectivity in vivo [3] was “cardio-selective adenosine receptor antagonist in vivo”. For the same compound, the “effects of subsequently administered adenosine on all parameters measured (blood pressure, heart rate, P-R interval)” value ([3]; intravenous) was “attenuated the effects of subsequently administered adenosine on all parameters measured”, the “heart block caused by high doses of adenosine” value ([3]; intravenous) was “substantially reduced” and the “effects of NECA on the heart” value ([3]; prior administration) was “attenuated the effects of NECA on the heart”. For the same compound, the “NECA-induced decrease in blood pressure” value [4] was “minimally affecting the NECA-induced decrease in blood pressure”, the Ki [5] was 0.116 µM and the Ki [6] was 6.96 µM. The “selectivity for A1 receptors over A2 receptors” value ([7]; A1 vs A2) was 170 fold and the Ki ([7]; Table 4, [3H]-CHA, rat cortical membranes per text) was 0.041 µM.

In the case of `Cn1c(=O)c2[nH]c(-c3ccccc3)nc2n(C)c1=O` [8-phenyltheophylline (8-PT), 8-phenyltheophylline, reference compound], the “antagonism … in relaxing the taenia caecum” value [2] is given as “did antagonize the effects of agonists at low concentrations”, the “sensitization of the tissue” value [2] is given as “Sensitization is also observed” and the “selectivity among adenosine receptors” value [8] is given as “non-selective adenosine receptor antagonist”.

For `Nc1ncnc2nc[nH]c12` [Adenine, reference compound], the Kb [9] is listed as 570 µM, the “antagonism of adenosine-induced cyclic Amp accumulation” value [10] is listed as “specific competitive antagonism” and the Kb [11] is listed as > 1000 µM. The Ki [12] was > 100 µM.

With `Nc1ncnc2c1ncn2[C@@H]1O[C@H](CO)[C@@H](O)[C@H]1O` [Adenosine, reference compound] the “heart block at high doses” value ([3]; high doses) was “causes heart block”.

For `CCNC(=O)[C@H]1O[C@@H](n2cnc3c(N)ncnc32)[C@H](O)[C@@H]1O` [NECA, 5'-N-ethylcarboxamido-adenosine], the “potency at A2 receptors” value [13] is given as “more potent than N^6 -substituted analogs”.

In the case of `CCC(Cc1cccs1)Nc1ncnc2c1ncn2C` (centres unmarked) [N^6-1-(2-Thienyl)-2-butyl)-9-MA, N^6-1-(2-Thienyl)-2-butyl-9-MA], the “basal force of contraction in the atria” value [1] is reported as “increases in basal force of contraction in the atria”, the “competitive antagonism” value [1] is reported as “competitive antagonists at adenosine receptors in the atria” and the Kb ([1]; guinea pig atrium, modified Schild plots, read-out: affinity constant pKB (converted)) is reported as 4.37 µM.

For `CCC(CC)Nc1ncnc2c1ncn2C` [N^6-3-Pentyl-9-MA, N^6-3-Pentyl-9-Methyladenine], the Kb [14] was 11 µM, the Kb [9, 15] was 53 µM and the “basal force of contraction in the atria” value [1] was “increases in basal force of contraction in the atria”. The “competitive antagonism” value [1] was “competitive antagonists at adenosine receptors in the atria”, the “affinity constant pKB” value [1, 16] was 5.4 ± 0.14 and the “selectivity for A1 adenosine receptors” value [2] was “selective for A1 adenosine receptors”. For the same compound, the “antagonism … in relaxing the taenia caecum” value [2] was “did not competitively antagonize the effects of adenosine agonists in relaxing the taenia caecum”, the “sensitization of the tissue” value [2] was “some sensitization of the tissue” and the Kb [11, 17] was 7.6 µM. The Ki ([12]; (D) Rat Brain Membranes, A1 Effects, read-out: Ki vs [^3 H] PI (Binding)) was 3.3 µM.

For `Cn1cnc2c(NC3CCCC3)ncnc21` [compound 0840, N^6 -Cyclopentyl-9-Methyl Adenine], the Kb [14] was 4.9 µM, the “potency relative to 9-methyladenine at A2 receptors” value ([14]; human platelet assay, vs 9-methyladenine) was 5 fold and the Kb [9, 15] was 25 µM. For the same compound, the “competitive antagonism” value [1] was “competitive antagonists at adenosine receptors in the atria”, the “affinity constant pKB” value [1, 16] was 6.17 ± 0.11 and the “selectivity for A1 adenosine receptors” value [2] was “selective for A1 adenosine receptors”. For the same compound, the “antagonism … in relaxing the taenia caecum” value [2] was “did not competitively antagonize the effects of adenosine agonists in relaxing the taenia caecum”, the “sensitization of the tissue” value [2] was “some sensitization of the tissue” and the Ki [5] was 0.375 µM. The Kb [11, 17] was 1.3 µM and the “potency relative to 9-methyladenine at A1 receptors” value ([12]; A1 receptors, vs 9-methyladenine) was “at least 100 fold”.
